Common to all, as to format: functional
The test system of assay [1] is Mycobacterium tuberculosis. Briefly: Antimycobacterial activity against Rifampicin-resistant Mycobacterium tuberculosis ATCC 35838 assessed as inhibition of bacterial cell growth incubated for 7 days by resazurin microtiter assay. Particulars: ATCC 35838, 168 h.
For assay [2], the system named is Mycobacterium tuberculosis. Put plainly: Antimycobacterial activity against Streptomycin-resistant Mycobacterium tuberculosis ATCC 35820 assessed as inhibition of bacterial cell growth incubated for 7 days by resazurin microtiter assay. Particulars: ATCC 35820, 168 h. A general note: The colour change of resazurin is a common sign of viable cells or microbes.
The subject of assay [3] is Mycobacterium tuberculosis. Briefly: Antimycobacterial activity against Isoniazid-resistant Mycobacterium tuberculosis ATCC 35822 assessed as inhibition of bacterial cell growth incubated for 7 days by resazurin microtiter assay. Particulars: ATCC 35822, 168 h.
The test system of assay [4] is Mycobacterium tuberculosis. Briefly: Antimycobacterial activity against Pyrazinamide-resistant Mycobacterium tuberculosis ATCC 35828 assessed as inhibition of bacterial cell growth incubated for 7 days by resazurin microtiter assay. Particulars: ATCC 35828, 168 h.

The term MIC denotes the smallest concentration in the dilution series that meets the test's criterion for growth inhibition.

Structures are written as SMILES. Converted amounts (≈) assume the structure as drawn.

`O=C1Oc2ccccc2N/C1=C\C(=O)N1CCOCC1`: the minimum inhibitory concentration (MIC) in assay [1] was 7.3 µM (≈ 2 µg/mL); in assay [2] it was 7.3 µM (≈ 2 µg/mL); in assay [3] it was > 117 µM; in assay [4], 3.6 µM (≈ 0.987 µg/mL).

`O=C(NNC(=O)c1ccncc1)C(=O)Nc1ccc(Cl)cc1O`: the minimal inhibitory concentration (MIC) is 12 µM (≈ 4.02 µg/mL) in assay [1], 24 µM (≈ 8.03 µg/mL) in assay [2], > 96 µM in assay [3] and 12 µM (≈ 4.02 µg/mL) in assay [4].

For the compound `COC(=O)/C=C1\Nc2ccc(Cl)cc2OC1=O`, the MIC in assay [1] was 3.9 µM (≈ 0.989 µg/mL); in assay [2], 3.9 µM (≈ 0.989 µg/mL); in assay [3], > 126 µM; in assay [4], 3.9 µM (≈ 0.989 µg/mL).

As to `COC(=O)/C=C1\Nc2cc(Cl)ccc2OC1=O`, the minimum inhibitory concentration (MIC) in assay [1] is 63 µM (≈ 16 µg/mL); in assay [2], 63 µM (≈ 16 µg/mL); in assay [3], > 126 µM; in assay [4], 31 µM (≈ 7.86 µg/mL).

In the case of `COC(=O)/C=C1\Nc2ccccc2OC1=O`, the minimum inhibitory concentration (MIC) in assay [1] was 9.1 µM (≈ 1.99 µg/mL); in assay [2], 4.5 µM (≈ 0.986 µg/mL); in assay [3], > 146 µM; in assay [4], 4.5 µM (≈ 0.986 µg/mL).

Regarding `O=C(NNC(=O)c1ccncc1)C(=O)Nc1cc(Cl)ccc1O`, the MIC in assay [1] is 12 µM (≈ 4.02 µg/mL); in assay [2], 24 µM (≈ 8.03 µg/mL); in assay [3], > 96 µM; in assay [4], 12 µM (≈ 4.02 µg/mL).

For `O=C1Oc2ccccc2N/C1=C\C(=O)c1cccs1`, the MIC in assay [1] was found to be 14.7 µM (≈ 3.99 µg/mL); in assay [2], 14.7 µM (≈ 3.99 µg/mL); in assay [3] it was 118 µM (≈ 32 µg/mL); in assay [4] it was 14.7 µM (≈ 3.99 µg/mL).

In the case of `O=C(NNC(=O)c1ccncc1)C(=O)Nc1ccccc1O`, the MIC is 3.3 µM (≈ 0.991 µg/mL) in assay [1], 26.7 µM (≈ 8.02 µg/mL) in assay [2], > 106 µM in assay [3] and 6.7 µM (≈ 2.01 µg/mL) in assay [4].

For the compound `NNC(=O)c1ccncc1` [ISONIAZID], the MIC is 1.8 µM (≈ 0.247 µg/mL) in assay [1], 1.8 µM (≈ 0.247 µg/mL) in assay [2], > 233 µM in assay [3] and 1.8 µM (≈ 0.247 µg/mL) in assay [4].

`O=C1Oc2ccccc2N/C1=C\C(=O)c1c[nH]c2ccccc12`: the minimal inhibitory concentration (MIC) in assay [1] is 3.3 µM (≈ 1 µg/mL); in assay [2], 3.3 µM (≈ 1 µg/mL); in assay [3], > 105 µM; in assay [4], 3.3 µM (≈ 1 µg/mL).

These data come from ChEMBL document CHEMBL4433266, “Design, synthesis and antimycobacterial activity of benzoxazinone derivatives and open-ring analogues: Preliminary data and computational analysis” (Bioorg Med Chem Lett, 2019).
